# Reference: PubChem BioAssay (NCI)
# Where “and” joins values, the source holds several entries; their conditions need not be identical. Equal values may be shown once.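 Step 1: Grow cells in 96-well plates. Step 2: Expose to compound for 48 hours at 5 concentrations. Step 3: Interpolate endpoints linearly; if unreached, use highest concentration. GI50 is the concentration that inhibits growth by half. TGI is the concentration that stops growth completely.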
# How the values were obtained:
# Test in all cases: inhibition of tumour cell growth, NCI panel, 48 h
# [1] = system: DMS 273 small cell lung
# [2] = system: UACC-257 melanoma
# [3] = system: SK-MEL-28 melanoma
# [4] = system: KM20L2 colon
# [5] = system: KM12 colon
# [6] = system: DLD-1 colon
# [7] = system: SN12C renal
# [8] = system: CAKI-1 renal
# [9] = system: MDA-MB-231 breast
# [10] = system: BT-549 breast
Structure (SMILES),TGI [1],TGI [2],TGI [3],TGI [4],TGI [5],TGI [6],TGI [7],TGI [8],GI50 [1],GI50 [7],GI50 [3],GI50 [4],GI50 [5],GI50 [6],GI50 [9],TGI [9],GI50 [10],TGI [10],GI50 [8]
CCCCNS(=O)(=O)c1ccc(-c2ccc3c(c2)-c2ccc(S(=O)(=O)NCCCC)cc2S3(=O)=O)cc1,> 100 µM,> 100 µM,29.7 µM,15.1 µM,> 100 µM,> 100 µM,–,–,–,–,–,–,–,–,–,–,–,–,–
O=C1OC(=O)C23CSCC12C1C=CC3O1 (configuration not stated),> 100 µM,> 100 µM,> 100 µM,> 100 µM,> 100 µM,> 100 µM,> 100 µM,> 100 µM,–,–,–,–,–,–,–,–,–,–,–
O=c1cc[nH]cc1-c1c[nH]ccc1=O,> 100 µM,> 100 µM,> 100 µM,–,> 100 µM,> 100 µM,> 100 µM,> 100 µM,–,–,–,–,–,–,–,–,–,–,–
O=c1c2ccccc2oc2ccccc12 (tested in a mixture with another compound),> 100 µM,9.31 µM,–,–,> 100 µM,7.75 µM,60.8 µM,> 100 µM,–,–,–,–,–,–,–,–,–,–,–
COc1cc(Cc2c(C)cc(OC)c3[nH]c4ccccc4c23)cc2c1[nH]c1ccccc12,21.6 µM,–,> 25 µM,10.8 µM,15 µM,> 25 µM,22.8 µM,–,7.64 µM,6.4 µM,8.61 µM,5.28 µM,5.43 µM,8.99 µM,–,–,–,–,–
CCCC(O)c1cn(-c2cccc(S(=O)(=O)O)c2)nn1 (configuration not stated),> 100 µM,> 100 µM,> 100 µM,> 100 µM,> 100 µM,> 100 µM,> 100 µM,> 100 µM,–,–,–,–,–,–,–,–,–,–,–
O=C(O)c1c2c(cc3c(=O)c4ccccc4[nH]c13)CCCC2,> 100 µM,> 100 µM,> 100 µM,> 100 µM,–,–,> 100 µM,–,–,–,–,–,–,–,–,–,–,–,–
CS(=O)(=O)c1ccc(COP(N)(=O)N(CCCl)CCCl)cc1 (configuration not stated),> 100 µM,> 100 µM,> 100 µM,> 100 µM,> 100 µM,> 100 µM,> 100 µM,> 100 µM,–,–,–,–,–,–,–,–,–,–,–
CC1=C(CO)C(=O)O[C@@H]([C@@H](C)[C@H]2CC[C@H]3[C@@H]4C[C@H]5O[C@]56[C@@H](O)C=CC(=O)[C@]6(C)[C@H]4CC[C@]23C)C1,1.53 µM,2.32 µM,2.29 µM,1.47 µM,1.82 µM,1.03 µM,1.78 µM,0.773 µM,–,0.463 µM,–,–,–,–,0.491 µM,1.77 µM,0.79 µM,2.15 µM,–
Cc1ccc(SSCC(O)C(O)CSSc2ccc(C)cc2)cc1 (configuration not stated),14.9 µM and 22.5 µM,30.5 µM and 28.1 µM,26.8 µM and 28.6 µM,24.2 µM and 26.6 µM,21.2 µM and 23.8 µM,32.1 µM and 30 µM,17.3 µM and 23.2 µM,15.4 µM and 27 µM,4.26 µM and 10.5 µM,4.74 µM and 10.5 µM,–,–,–,–,–,–,–,–,4.04 µM and 13.2 µM
CN1CCN=C1c1nnn(-c2ccc([N+](=O)[O-])cc2)c1-c1ccccc1,> 100 µM,> 100 µM,> 100 µM,> 100 µM,> 100 µM,> 100 µM,> 100 µM,> 100 µM,–,–,–,–,–,–,–,–,–,–,–
